Like-named read-outs stand apart in the source and are kept apart here.
What was measured:
human PXR [1] = target: T1, human PXR (Homo sapiens, UniProt O75469); conditions: for hPXR Efficacy: human
T1 sequence (O75469 1-434): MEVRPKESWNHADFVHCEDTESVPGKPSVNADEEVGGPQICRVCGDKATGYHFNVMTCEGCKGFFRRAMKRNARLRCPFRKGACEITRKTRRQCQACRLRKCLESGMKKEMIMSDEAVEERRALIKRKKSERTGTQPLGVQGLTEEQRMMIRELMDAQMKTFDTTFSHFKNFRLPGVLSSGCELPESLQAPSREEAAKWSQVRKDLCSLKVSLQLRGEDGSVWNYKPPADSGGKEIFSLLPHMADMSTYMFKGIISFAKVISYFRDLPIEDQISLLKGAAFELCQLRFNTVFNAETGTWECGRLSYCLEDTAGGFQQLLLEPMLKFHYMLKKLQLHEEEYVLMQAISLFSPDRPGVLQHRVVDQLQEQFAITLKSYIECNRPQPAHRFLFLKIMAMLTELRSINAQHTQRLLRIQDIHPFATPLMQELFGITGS

zebrafish PXR = target: T2, zebrafish PXR (Danio rerio, UniProt A5WYG8); conditions: for zfPXR Efficacy: relative to 20 μM 5α-androstan-3α-ol, assigned an efficacy of 1.0
T2 sequence (A5WYG8 144-430): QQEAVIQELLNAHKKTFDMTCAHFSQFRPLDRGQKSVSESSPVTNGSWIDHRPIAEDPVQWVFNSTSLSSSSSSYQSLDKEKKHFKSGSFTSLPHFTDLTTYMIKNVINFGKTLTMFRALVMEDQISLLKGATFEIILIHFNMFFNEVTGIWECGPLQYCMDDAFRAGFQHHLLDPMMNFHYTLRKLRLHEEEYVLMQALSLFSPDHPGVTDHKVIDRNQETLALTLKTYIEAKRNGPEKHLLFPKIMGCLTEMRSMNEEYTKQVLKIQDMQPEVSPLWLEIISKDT

human PXR [2] = target: T1, human PXR; experiment: PXR activation luciferase reporter assay, human PXR in HepG2-NTCP cells; conditions: hPXR Activity, -log(EC50), EC50 in molar units, activation of human PXR
[3] = -log(EC50), EC50 in molar units, activation of zebrafish PXR

COc1c(C)c2c(c(O)c1C/C=C(\C)CCC(=O)O)C(=O)OC2 [MI21, Mycophenolic acid]
hPXR Activity (human PXR [1]): None | Toxicity (HepG2 cells): None | zfPXR Activity (zebrafish PXR; [3]): None

CCC1(c2ccccc2)C(=O)NC(=O)NC1=O [MI25, Phenobarbital]
hPXR Efficacy (human PXR [1]): 1.19 | Toxicity (HepG2 cells): None

O=C1NC(=O)C(c2ccccc2)(c2ccccc2)N1 [MI26, Phenytoin]
hPXR Efficacy (human PXR [1]): 0.52 | Toxicity (HepG2 cells; human, 24 hr): 200 µM | zfPXR Activity (zebrafish PXR): None

CC(C)CCC[C@@H](C)[C@H]1CC[C@H]2C3=CC=C4C[C@@H](O)CC[C@]4(C)[C@H]3CC[C@]12C [MI28, Provitamin D3]
hPXR Activity (human PXR [1]): None | Toxicity (HepG2 cells): 10 µM | zfPXR Activity (zebrafish PXR; [3]): None

CC(C)[C@@H](C)/C=C/[C@@H](C)[C@H]1CC[C@H]2C3=CC=C4C[C@@H](O)CC[C@]4(C)[C@H]3CC[C@]12C [MI29, Provitamin D2]
hPXR Activity (human PXR [1]): None | Toxicity (HepG2 cells): 20 µM | zfPXR Activity (zebrafish PXR; [3]): None

CC1=C(/C=C/C(C)=C/C=C/C(C)=C/CO)C(C)(C)CCC1 [MI31, Retinol]
hPXR Efficacy (human PXR [1]): 0.20 | Toxicity (HepG2 cells; human, 24 hr): 50 µM | zfPXR Activity (zebrafish PXR): None

C=C1/C(=C\C=C2/CCC[C@]3(C)[C@@H]([C@H](C)/C=C/[C@H](C)C(C)C)CC[C@@H]23)C[C@@H](O)C[C@@H]1O [MI42, 1α-Hydroxyvitamin D2]
hPXR Activity (human PXR [1]): None | Toxicity (HepG2 cells; human, 24 hr): 50 µM | zfPXR Activity (zebrafish PXR; [3]): None

CC1=CC(=O)c2ccccc2C1=O [MI46, Vitamin K3]
hPXR Efficacy (human PXR [1]): ~0.15 | Toxicity (HepG2 cells; human, 24 hr): 100 µM | zfPXR Activity (zebrafish PXR): None

CC(=O)[C@@]1(O)CC[C@H]2[C@@H]3CC=C4C[C@@H](O)CC[C@]4(C)[C@H]3CC[C@@]21C [PR11, 5-Pregnen-3β,17-diol-20-one]
EC50 (human PXR [1]): 11 to 50 µM | hPXR Activity (human PXR [1]): 4.47 | Toxicity (HepG2 cells): None | zfPXR Activity (zebrafish PXR; [3]): None

CC(=O)[C@H]1CC[C@H]2[C@@H]3CC[C@H]4C[C@H](O)CC[C@]4(C)[C@H]3CC[C@]12C [PR14, 5α-Pregnan-3α-ol-20-one]
hPXR Efficacy (human PXR [1]): 0.46 | EC50 (human PXR [2]): 4.17 µM | Toxicity (HepG2 cells): None

C[C@]12CC[C@@H](O)C[C@H]1CC[C@@H]1[C@@H]2[C@@H](O)C[C@@]2(C)[C@H]1CC[C@]2(O)[C@@H](O)CO [PR17, 5β-Pregnan-3α,11β,17,20α-21-pentol]
hPXR Activity (human PXR [1]): 4.33 | Toxicity (HepG2 cells): 200 µM | zfPXR Activity (zebrafish PXR; [3]): 3.95 | zfPXR Efficacy (zebrafish PXR): 0.98

C[C@]12CC[C@@H](O)C[C@H]1CC[C@@H]1[C@@H]2C(=O)C[C@@]2(C)[C@H]1CC[C@]2(O)[C@@H](O)CO [PR18, 5β-Pregnan-3α,17,20α-21-tetrol-11-one]
hPXR Activity (human PXR [1]): 4.35 | Toxicity (HepG2 cells): 200 µM | zfPXR Activity (zebrafish PXR; [3]): 4.34 | zfPXR Efficacy (zebrafish PXR): 0.25

C[C@]12CC[C@@H](O)C[C@H]1CC[C@@H]1[C@@H]2C(=O)C[C@@]2(C)[C@H]1CC[C@]2(O)C(=O)CO [PR19, 5β-Pregnan-3α,17,21-triol-11,20-dione]
hPXR Activity (human PXR [1]): 4.28 | Toxicity (HepG2 cells): None | zfPXR Activity (zebrafish PXR; [3]): 4.43 | zfPXR Efficacy (zebrafish PXR): 0.33

C[C@@H](O)[C@@]1(O)CC[C@H]2[C@@H]3CCC4=CC(=O)CC[C@]4(C)[C@H]3CC[C@@]21C [PR21, 4-Pregnen-17α,20β-diol-3,20-dione]
hPXR Activity (human PXR [1]): None | Toxicity (HepG2 cells): 200 µM | zfPXR Activity (zebrafish PXR; [3]): None

C[C@@H](O)[C@H]1CC[C@H]2[C@@H]3CC[C@@H]4C[C@H](O)CC[C@]4(C)[C@H]3CC[C@]12C [PR23, 5β-Pregnan-3α,20β-diol]
hPXR Activity (human PXR [1]): 5.42 | Toxicity (HepG2 cells): None | zfPXR Activity (zebrafish PXR; [3]): 5.95 | zfPXR Efficacy (zebrafish PXR): 0.25

C[C@]12CC[C@@H](O)C[C@H]1CC[C@@H]1[C@@H]2[C@@H](O)C[C@@]2(C)[C@H]1CC[C@]2(O)C(=O)CO [PR24, 5β-Pregnan-3α,11β,17,21-tetrol-20-one]
hPXR Activity (human PXR [1]): 4.33 | Toxicity (HepG2 cells): None | zfPXR Activity (zebrafish PXR; [3]): 3.94 | zfPXR Efficacy (zebrafish PXR): 0.11

CC(=O)[C@H]1CC[C@H]2[C@@H]3CC=C4C[C@@H](OS(=O)(=O)O)CC[C@]4(C)[C@H]3CC[C@]12C [PR26, 5-Pregnen-20-one-3β-sulfate]
hPXR Activity (human PXR [1]): None | Toxicity (HepG2 cells): None | zfPXR Activity (zebrafish PXR; [3]): 4.95 | zfPXR Efficacy (zebrafish PXR): 0.23

— PMC2358886, “Evolution of pharmacologic specificity in the pregnane X receptor” (BMC Evolutionary Biology, 2008)
